The target in data set [1] is T1, human cloned 5-HT6 receptors (Homo sapiens, UniProt P50406).
T1 construct: expressed in transfected cells; host or cells: HeLa cells
The data set is described as follows: 5-HT6 binding affinity, [3H]-LSD displacement, membranes of Hela cells expressing human cloned 5-HT6 receptors. The method, then: The affinity of test compounds for the serotonin 5-HT6 receptor was evaluated in the following manner. Cultured Hela cells expressing human cloned 5-HT6 receptors were harvested and centrifuged at low speed (1,000×g) for 10.0 minutes to remove the culture media. The harvested cells were suspended in half volume of fresh physiological phosphate buffered saline solution and recentrifuged at the same speed. This operation was repeated. The collected cells were then homogenized in ten volumes of 50 mM Tris.HCl (pH 7.4) and 0.5 mM EDTA. The homogenate was centrifuged at 40,000×g for 30.0 min and the precipitate was collected. The obtained pellet was resuspended in 10 volumes of Tris.HCl buffer and recentrifuged at the same speed. The final pellet was suspended in a small volume of Tris.HCl buffer and the tissue protein content was determined in aliquots of 10-25 μl volumes. Bovine Serum Albumin was used as the standard in the protein determination according to the method described in Lowry et al., J. Biol. Chem., 193: 265 (1951). The volume of the suspended cell membranes was adjusted to give a tissue protein concentration of 1.0 mg/ml of suspension. The prepared membrane suspension (10 times concentrated) was aliquoted in 1.0 ml volumes and stored at −70° C. until used in subsequent binding experiments.
Binding experiments were performed in a 96 well microtiter plate format, in a total volume of 200 μl. […] The test compounds were added in 20.0 μl volume.
The reaction was allowed to proceed in the dark for 120 minutes at room temperature, at which time, the bound ligand-receptor complex was filtered off on a 96 well unifilter with a Packard Filtermate® 196 Harvester. The bound complex caught on the filter disk was allowed to air dry and the radioactivity is measured in a Packard TopCount® equipped with six photomultiplier detectors, after the addition of 40.0 μl Microscint®-20 scintillant to each shallow well. The unifilter plate was heat-sealed and counted in a PackardTopCount® with a tritium efficiency of 31.0%.
Binding in the presence of varying concentrations of test compound was expressed as a percentage of specific binding in the absence of test compound. The results were plotted as log % bound versus log concentration of test compound. […] A linear regression line of data points was plotted, from which the IC50 value is determined and the Ki value is determined based upon the following equation: Ki=IC50/(1+L/KD) where L was the concentration of the radioactive ligand used and KD is the dissociation constant of the ligand for the receptor, both expressed in nM.

Where a name gives a salt, the structure may show the parent alone.

The results in this text go back to patent publication US7414051B2, “Substituted-dihydro[1,4]oxazino[2,3,4-hi]indazole derivatives as 5-hydroxytryptamine-6 ligands” (Wyeth, priority 2006, dated 2008).

A word on the melting point: it is the temperature of the solid-liquid transition. One may read the Ki as a measure of affinity in units of concentration, obtained from inhibition or displacement. Low values mean tighter binding, high ones weaker binding.

T1 sequence (P50406 whole entry): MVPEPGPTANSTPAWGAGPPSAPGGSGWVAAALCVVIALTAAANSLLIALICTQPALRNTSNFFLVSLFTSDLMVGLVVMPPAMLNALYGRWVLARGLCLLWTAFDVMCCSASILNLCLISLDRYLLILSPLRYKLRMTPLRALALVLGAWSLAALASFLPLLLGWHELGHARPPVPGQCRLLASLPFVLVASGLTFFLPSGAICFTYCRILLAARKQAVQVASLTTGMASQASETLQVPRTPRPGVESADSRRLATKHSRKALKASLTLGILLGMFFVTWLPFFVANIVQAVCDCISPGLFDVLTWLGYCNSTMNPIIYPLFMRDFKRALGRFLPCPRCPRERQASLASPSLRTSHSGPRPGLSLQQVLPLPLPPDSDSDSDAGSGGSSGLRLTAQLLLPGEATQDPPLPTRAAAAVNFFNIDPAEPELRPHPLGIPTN

The compound `O=S(=O)(c1cccc2ccccc12)c1nn2c3c(cc(OCCN4CCCCC4)cc13)OCC2` [Example 14, 6-(1-Naphthylsulfonyl)-8-(2-piperidin-1-ylethoxy)-2,3-dihydro[1,4]oxazino[2,3,4-hi]-indazole] yielded a melting point of 90 to 92 °C. The compound further had a Ki in data set [1] of 26 nM.

As to `CN1CCN(c2cc3c4c(c2)c(S(=O)(=O)c2cccc5ccccc25)nn4CCO3)CC1` [Example 6, 8-(4-Methylpiperazin-1-yl)-6-(1-naphthylsulfonyl)-2,3-dihydro[1,4]oxazino[2,3,4-hi]indazole Hydrochloride], the affinity in data set [1], expressed as Ki, was 1 nM.

With `CN1CCN(c2cc3c4c(c2)c(S(=O)(=O)c2cccc5ccccc25)nn4CCO3)CC1` (as salt: hydrochloride) [Example 6, 8-(4-Methylpiperazin-1-yl)-6-(1-naphthylsulfonyl)-2,3-dihydro[1,4]oxazino[2,3,4-hi]indazole Hydrochloride], the melting point is greater than 225 °C.

In data set [1], `CNCCOc1cc2c3c(c1)c(S(=O)(=O)c1cccc4ccccc14)nn3CCO2` [Example 12, N-methyl-2-{[6-(1-naphthylsulfonyl)-2,3-dihydro[1,4]oxazino[2,3,4-hi]indazol-8-yl]oxy}ethanamine Hydrochloride] displayed a Ki of 5.1 nM.

As to `O=S(=O)(c1cccc2ccccc12)c1nn2c3c(cc(OCCN4CCCC4)cc13)OCC2` [Example 15, 6-(1-Naphthylsulfonyl)-8-(2-pyrrolidin-1-ylethoxy)-2,3-dihydro[1,4]oxazino[2,3,4-hi]-indazole], the melting point is 127 to 129 °C. The same compound returned a Ki in data set [1] of 14 nM.

The compound `CN(C)CCOc1cc2c3c(c1)c(S(=O)(=O)c1cccc4ccccc14)nn3CCO2` [Example 13, N,N-Dimethyl-2-{[6-(1-naphthylsulfonyl)-2,3-dihydro[1,4]oxazino[2,3,4-hi]indazol-8-yl]oxy}ethanamine] displayed a Ki in data set [1] of 7.9 nM.
